Data as given in paper PMC4999093, “Novel NAD^+-Farnesal Dehydrogenase from Polygonum minus Leaves. Purification and Characterization of Enzyme in Juvenile Hormone III Biosynthetic Pathway in Plant” (PLoS ONE, 2016).

Test system: T1, NAD^+-farnesal dehydrogenase (P. minus farnesal dehydrogenase)
T1 construct: native enzyme purified from leaves, untagged
Test: NADH formation at […] nm, Lineweaver-Burk
Assay type: biochemical, Persicaria minor
Settings: 100 mM glycine-NaOH pH 9.5, 35°C

CC(C)=CCCC(C)=CC=O (mixture of isomers) [Citral, 3,7-dimethyl-2,6-octadienal]
Km (1.0 mM NAD+, substrate is a mixture of geranial and neral): 690 µM

CC(C)=CCC/C(C)=C/CC/C(C)=C/C=O (mixture of isomers) [Farnesal, 3,7,11-trimethyl-2,6,10-dodecatrienal]
Km (1.0 mM NAD+, substrate is a mixture of isomers): 130 µM

NC(=O)c1ccc[n+]([C@@H]2O[C@H](COP(=O)(O)OP(=O)(O)OC[C@H]3O[C@@H](n4cnc5c(N)ncnc54)[C@H](O)[C@@H]3O)[C@@H](O)[C@H]2O)c1 [NAD^+]
Km (co-substrate farnesal): 310 µM

O=C/C=C/c1ccccc1 [trans-cinnamaldehyde]
Km (1.0 mM NAD+): 860 µM

C/C(C=O)=C\c1ccccc1 [α-methylcinnamaldehyde]
Km (1.0 mM NAD+): 1280 µM
